Measurements taken from BigSolDB 2.1.

COc1ccc(C(=O)O)c(OC)c1OC
solubility (mole fraction)
Settings	278.15 K	283.15 K	288.15 K	293.15 K	298.15 K	303.15 K	308.15 K	313.15 K	318.15 K
in 2-butoxyethanol	0.0838	0.0944	0.113	0.127	0.148	0.167	0.185	0.207	0.25
in 2-ethoxyethanol	0.179	0.207	0.238	0.264	0.289	0.318	0.353	0.39	0.431
in 2-methoxyethanol	0.11	0.127	0.154	0.168	0.194	0.213	0.233	0.26	0.283
in ethanol	0.0482	0.0585	0.0733	0.0926	0.116	0.154	0.199	0.27	0.3
in ethyl acetate	0.066	0.0792	0.0992	0.112	0.13	0.174	0.236	0.283	0.301
in ethylene glycol	0.0165	0.0188	0.0227	0.0281	0.036	0.0421	0.0501	0.0635	0.0828
in isopropanol	0.0261	0.0363	0.0496	0.069	0.0801	0.102	0.129	0.158	0.186
in isopropyl acetate	0.0412	0.0495	0.0584	0.0692	0.0778	0.0892	0.0988	0.115	0.137
in n-butyl acetate	0.047	0.0574	0.0673	0.0751	0.0832	0.0991	0.12	0.136	0.168
in n-propanol	0.0312	0.0405	0.0538	0.072	0.082	0.104	0.129	0.161	0.189
in n-propyl acetate	0.0357	0.0454	0.0549	0.0722	0.0829	0.106	0.13	0.162	0.189
in water	0.000331	0.000419	0.000497	0.000553	0.000703	0.000892	0.00109	0.00134	0.00152
